Values joined by “and” are separate entries in the source; they are usually repeats but may differ in a detail not shown here. Identical values can stand only once.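 1) Cells in 96-well plates. 2) Compound, 48 h, 5 concentrations. 3) Linear interpolation between surrounding doses. 4) Unreached endpoint = highest concentration. At the GI50, growth is halved. TGI: total growth inhibition.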
Tests used:
Experiment in all cases: growth of human tumour cells (NCI), 48 h
[1] = tested on: HCC-2998 colon
[2] = tested on: SK-MEL-28 melanoma
[3] = tested on: K-562 leukemia
[4] = tested on: T-47D breast
[5] = tested on: SW-620 colon
[6] = tested on: SN12C renal
[7] = tested on: EKVX NSCLC
[8] = tested on: OVCAR-8 ovarian
[9] = tested on: SK-OV-3 ovarian
[10] = tested on: HL-60(TB) leukemia

Structure (SMILES) | TGI [1] [µM] | TGI [2] [µM] | TGI [3] [µM] | TGI [4] [µM] | TGI [5] [µM] | TGI [6] [µM] | TGI [7] [µM] | TGI [8] [µM] | TGI [9] [µM] | TGI [10] [µM] | GI50 [10] [µM] | GI50 [1] [µM] | GI50 [2] [µM] | GI50 [3] [µM] | GI50 [4] [µM] | GI50 [5] [µM] | GI50 [6] [µM] | GI50 [7] | GI50 [8] [µM]
COC1(OC)CC(CO)(COc2cc(Cl)nc(N)n2)C1 | > 100 | > 100 | > 100 | > 100 | > 100 | > 100 | > 100 | > 100 | > 100 |  |  |  |  |  |  |  |  |  | 
O=C(CCCCCNC(=O)c1ccc(Cl)cc1)NO | 18.3 | > 100 | > 100 | 5.14 | > 100 | 24.4 | > 100 | 86.8 | 41 | 16.1 |  |  |  |  |  |  |  |  | 
CCOC(=O)Cc1[nH]c(C(=O)c2ccccc2)cc1C(=O)c1ccccc1 | > 100 | > 10 | > 10 | > 100 | > 100 | > 100 | > 100 | > 10 | > 100 | > 100 |  |  |  |  |  |  |  |  | 
CSc1nnnc2ccccc12 | > 100 | > 100 | > 100 | > 100 | > 100 | > 100 | > 100 | > 100 | > 100 | > 100 |  |  |  |  |  |  |  |  | 
Cc1ccc2sc3c(NCCCN)nc4ccccc4c3c(=O)c2c1 | 3.25 | 3.28 | 4.51 | 4.57 | 3.54 | 3.13 | 4.09 | 5.91 |  | 4.09 | 2.05 | 1.74 | 1.78 | 2 | 1.89 | 1.79 | 1.68 | 1.89 µM | 2.41
O=C(O)C(Cc1ccccc1)Cc1ccccc1 |  | > 100 | > 100 | > 100 | > 100 | > 100 | > 100 | > 100 | > 100 | > 100 |  |  |  |  |  |  |  |  | 
N#Cc1c(/C=C/c2ccccc2)c2c([nH]c1=S)CCCCC2 | > 100 | > 100 | > 100 | > 100 | > 100 | > 100 | > 100 | > 100 | > 100 | > 100 |  |  |  |  |  |  |  |  | 
C1=CC2C(C3CN(c4ccccc4)N=C13)C1C3C4C=CC21C=CC43 (configuration not stated) | > 100 | > 100 | > 100 | > 100 | > 100 | > 100 | > 100 | > 100 | > 100 | > 100 |  |  |  |  |  |  |  |  | 
Cc1ccc(/C=c2\c(=O)[nH]c3nc4ccccc4c(=O)n23)cc1 | 62.6 | > 100 |  | > 100 | 48.8 | > 100 |  | > 100 | > 100 | > 100 |  |  |  |  |  |  |  |  | 
NS(=O)(=O)c1nnc(NS(=O)(=O)c2cccc3cccnc23)s1 | > 100 | > 100 | > 100 | > 100 | > 100 | > 100 | > 100 | > 100 | > 100 |  |  |  |  |  |  |  |  |  | 
O=C1C(c2ccccc2)=C(c2ccccc2)C1(Cl)Cl | 13.3 | 10.9 | 4.13 | 10.6 | 9.77 | 11.5 | 21.7 | 8.98 | 29.2 | 2.17 |  |  |  |  |  |  |  |  | 
COc1cc(C2c3cccc4cccc(c34)C3CCC(=O)N32)cc(OC)c1O (configuration not stated) |  | > 50 | > 50 | > 50 | > 50 | > 50 | > 50 | > 50 | > 50 | > 50 |  |  |  |  |  |  |  |  | 
CCn1c(CCCc2nc3c([nH]2)c(=O)n(C)c(=O)n3C)nc2c1c(=O)n(C)c(=O)n2C | > 100 | > 100 | > 100 | > 100 | > 100 | > 100 | > 100 | > 100 | > 100 | > 100 |  |  |  |  |  |  |  |  | 
CCOC(=O)c1nc2ccccc2nc1Nc1ccc(C(=O)OC)s1 | > 100 | > 100 |  | > 100 | > 100 | > 100 | > 100 | > 100 |  | > 100 |  |  |  |  |  |  |  |  | 
CC1(C)C2CC3C(C)(C2)C31c1cc(Cl)ccc1N (configuration not stated) | 28.2 | 31.3 | 23.5 | 26.2 | 28.2 | 27.5 | 33 | 30.3 | 29 |  |  |  |  |  |  |  |  |  | 
Cc1cc(N(CCC#N)CCC#N)ccc1/C(N=Nc1ccc(C(=O)O)cc1)=N\NC(=O)c1ccccc1 | > 100 |  | > 100 | > 100 |  | > 100 | > 100 | > 100 | > 100 |  |  |  |  |  |  |  |  |  | 
CN(C)C(=O)N1N[C@H](c2ccccc2)[C@@H]1c1ccccc1 | > 100 | > 100 | > 100 | > 100 | > 100 | > 100 | > 100 | > 100 | > 100 |  |  |  |  |  |  |  |  |  | 
Cc1nc(N)c(N2CCN(S(=O)(=O)N(Cc3ccccc3)Cc3ccccc3)CC2)c(=O)[nH]1 | > 100 | 34.1 | > 100 | 59.7 | > 100 | 80.7 | > 100 | > 100 |  | > 100 |  |  |  |  |  |  |  |  | 
NC(=Nc1ccccc1)N/N=C/c1c[nH]c2ccccc12 | 2.35 | 8.77 | 30.4 | 6.89 | 5.02 | 15.6 | 25 | 3.98 | 4.14 | 4.54 |  |  |  |  |  |  |  |  | 
N#Cc1ccc(-c2ccc(Cl)cc2)n(C2OC(CO)C(O)C(O)C2O)c1=S (configuration not stated) | > 100 | > 100 | > 100 | > 100 | > 100 | > 100 | > 100 | > 100 |  | > 100 |  |  |  |  |  |  |  | > 100 µM and 33.7 µM | 
O=C(CC(=O)N1N=C(c2ccccc2)C(N=Nc2ccc(S(=O)(=O)CCOS(=O)(=O)O)cc2)C1=O)Nc1ccc(Cl)cc1 (configuration not stated) | > 100 | > 100 | > 100 | > 100 |  | > 100 | > 100 | > 100 | > 100 | > 100 |  |  |  |  |  |  |  |  | 
CC1(C)CCCCCC(O)C(O)CCC(C)(C)C1=O (configuration not stated) |  | > 100 | > 100 | > 100 | > 100 | > 100 | > 100 | > 100 | > 100 | > 100 |  |  |  |  |  |  |  |  | 

Source: PubChem BioAssay (NCI)
